Assay results reported in patent US8658677B2, “Pyridyl-2-methylamino compounds, compositions and uses thereof” (Aria Neurosciences Inc., priority 2011, dated 2014).
Entries after “also recorded” stand apart in the source; their conditions may differ.

How the values were obtained:
Aβ40 [1] = biological target: T1, Aβ40 (Homo sapiens, UniProt P05067); assay: Oligomerization assay; type: biochemical
T1 construct: host or cells: chemical solid-phase peptide synthesis (no expression host)
Protocol: […] monomerized synthetic Aβ40 was incubated in 0.1M Tris pH 7.0, T=37° C. for 8 days in the presence of 0-100 μM concentration of compounds. […] An arrow indicates Aβ monomers clustered in ill developed protofibril. (C) Oligomerization assay. ARN4261 and ARN4224 reduced the amount of Aβ oligomers by 78% and 74%, respectively p<0.001. A compound 69b (GKLVFNmgA) was used as a positive control. 69b is homologous to Aβ sequence 17-21 and contains N-methyl glycine (Nmg), which renders it capable of anti-fibrillization and anti-oligomerization effect. (D) Principle of oligomerization assay. 100 μM Aβ40 was aggregated alone or with the addition of 10 μM of tested compounds [1:10 compound: Ab ratio] for 24 h in conditions promoting oligomers assembly, i.e., DMEM/F-12 medium+0.2% SDS, T=4° C. Prior to SDS-PAGE in non-reducing conditions samples were treated with glutaraldehyde. A strong smear of Aβ oligomers is seen between 37 and 70 KDa markers (arrows) in lane 2, and a dense band below the 25 KDa marker reflects Aβ monomers non-dissociated by 10% polyacrylamide gel. No oligomers above 37 KDa marker are seen in lane 1 containing only Aβ monomers run as a control. […] (E) TEM of Aβ oligomers. […] Yellow arrowhead indicates smaller oligomers.

[2] = Analysis of chemical structure stability; type: physicochemical
Description: This is because of the instability of —C═N— bond. Therefore we have synthesized a reduced version of ARN4261dubbed ARN2966 (2-[(pyridine-2-ylmethyl)-amino]-phenol, MW 200.2 Da, Log P 1.96).

Log P = type: physicochemical
Aβ40 [3] = assay: Aβ40 secretion by primary hippocampal neurons derived from Tg2576 AD Tg mice; type: cell-based; conditions: 10 μM, primary neuronal cultures from Tg2576 mice
Protocol: In addition to studying the effect of ARN4261 and ARN2966 on Aβ oligomerization and fibrillization, we have explored their properties in respect to the modulation of Aβ production using CHO clones stably transfected with WT human APP751 and double Swedish APP751 mutant (KM670/671NL). The results in FIGS. 3(A) and 3(B) show inhibitory effect of ARN4261 and ARN2966 on secretion of Aβ40 and Aβ42 by 751APPSW CHO cells exposed to ARN compounds for 48 hr. Values are expressed as % of Aβ40 and Aβ42 levels in conditioned media (CM) of untreated cells. FIG. 3(C) Concentrations of Aβ40 and Aβ42 in 751APPSWCHO cell CM under increasing concentrations of ARN2966. 751APPSWCHO cells secrete Aβ40 and Aβ42 in proportions 9:1, akin to the proportions of Aβ peptides produced by neurons. […] Aβ40 and Aβ42 levels were determined using sandwich ELISA where C-terminal specific anti Aβ40 and Aβ42 mAbs were used as capture Abs and biotinylated 4G8 as the detection Ab. […] We also confirmed that ARN2966 inhibited secretion of Aβ by primary neuronal cultures derived from Tg2576 AD Tg mice.

M17 neuroblastoma cells = assay: Rescue of M17 neuroblastoma cells from death induced by MPP+ and H2O2 (MTT); type: cell-based
Description: Cell viability was detected by MTT assay.

APPSW/PS1dE9 mice = assay: Memory testing: object recognition and 8-armed radial arm maze; type: in vivo; conditions: 50 mg/kg/day ip, last three weeks of treatment
Protocol: Female APPSW/PS1dE9 mice received ARN2966 (n=10) or Vehicle (n=15) from the age of six to ten months. ARN2966 (50 mg/kg/day) was given once a day by intraperitoneal injection. […] After conclusion of the experiments, samples of organs from ARN2966 and Vehicle treated animals were subjected to histopathological evaluation conducted by a veterinary pathologist. […] Signs of mild chronic peritonitis related to repeated daily intraperitoneal compound injection, however, were reported in both groups.
P<0.05, unpaired, two-tailed t-test. […] One session is given per day. […] Starting from day five, vehicle treated APPSW/PS1dE9mice were consistently making more errors than ARN2966 treated APPSW/PS1dE9 and non-Tg littermates. One-way ANOVA p<0.001.
During the last three weeks of treatment, animals were behaviorally tested using object recognition paradigm and the 8-armed radial arm maze, both of which measure memory capability. […] However, vehicle treated APPSW/PS1dE9 mice were incapable of discriminating between familiar and novel objects, as is characteristic of their phenotype.

APP [4] = assay: Acute treatment experiment: brain soluble Aβ40, APP, C99 and C83; type: in vivo, mice; conditions: five days ip, ARN2966 50 mg/kg/day, Compound E 3 mg/kg/day
Protocol: Furthermore, we conducted an acute treatment experiment where six months old female APPSW/PS1dE9 mice (n=3/group) were treated for five days with ARN2966 (50 mg/kg/day), Compound E (3 mg/kg/day) or Vehicle injected intraperitoneally. Mice were killed three hours after the last injections. The level of soluble Aβ40 was measured in the brain aliquots following diethylamine (DEA) extraction. It was lower in ARN2966 and Compound E treated groups by 39% (p<0.05) and 60% (p<0.05) comparing to vehicle treated mice, respectively (p<0.05; FIG. 6E).
FIGS. 6.(A, B) ARN2966 treatment reduces load of Aβ plaques (n=10 ARN2966, n=15 Vehicle). (B) Representative photomicrograph of Th-S stained brain sections from vehicle and ARN2966 treated 10 month old, female APPSW/PS1dE9reveal a difference in the load of Aβ plaques. […] (D) Reduced Aβ40 and Aβ42 levels in FA extracted brain homogenate, which represent the total brain content of Aβ peptides in ARN2966 treated animals (ELISA). (E) Reduced soluble Aβ40 level in DEA extracted brain homogenate, of ARN2966 and Compound E treated mice (ELISA). […] Aβ concentrations in (C) (D) and (E) are given per gram of wet brain. All values are given as mean±SEM. Statistical analysis was done using two-tailed unpaired t-test, following confirmation of normal distribution of data using Shapiro-Wilk test.

APP [5] = assay: 35S-Methionine pulse labeling of APP in 751APPSW CHO cells; type: cell-based, human
Protocol: D. APP was immunoprecipitated with 22C11 mAb against its N-terminus. Representative radiographs (B) and densitometric results averaged from three independent experiments are shown (A). […] Two sets of experiments were conducted using either actin or GAPDH as housekeeping genes.

T1 sequence (P05067 672-711): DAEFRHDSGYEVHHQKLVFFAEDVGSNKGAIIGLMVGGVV

| Structure (SMILES) | TEM of Aβ oligomers (Aβ40 [1]) | reduction of the amount of Aβ oligomers (Aβ40 [1]; 100 μM Aβ40, 10 μM compound, 24 h, DMEM/F-12 + 0.2% SDS, 4° C.) | amount of oligomers on SDS-PAGE (Aβ40 [1]; 100 μM Aβ40, 10 μM compound, 24 h, lanes 3-5) | chemical structure stability [2] | stability in acidic pH ([2]; acidic pH) | logP (Log P) | lowering of Aβ40 concentration in the conditioned media (Aβ40 [3]) | cell morphology by phase contrast microscopy (M17 neuroblastoma cells) | rescue of cell death induced by H2O2 (M17 neuroblastoma cells; 300 μM H2O2, increasing concentrations, MTT) | rescue of cell death induced by MPP+ (M17 neuroblastoma cells; 0.5 mM MPP+, increasing concentrations, MTT) | object recognition test (APPSW/PS1dE9 mice) | radial arm maze, errors per session (APPSW/PS1dE9 mice) | APP, C99 and C83 signal in brain homogenate (western immunoblotting) (APP [4]) | lowering of soluble Aβ40 (DEA extraction) in brain vs vehicle (APP [4]; killed three hours after last injection) | reduction of translation of APP (APP [5]; 25 μM, 2 h 35S-Methionine pulse) | incorporation of 35S-Methionine by APP during translation (APP [5]; 751APPSW CHO cells) | translation of β-actin (APP [5]; 751APPSW CHO cells) |
| --- | --- | --- | --- | --- | --- | --- | --- | --- | --- | --- | --- | --- | --- | --- | --- | --- | --- |
| Oc1ccccc1N=Cc1ccccn1 [ARN4261, 2-(Pyridin-2-ylmethyleneamino)-phenol] | increased number of Aβ monomers and dimers | 78% | reduced amount of oligomers | prone to self-decomposing | easily degradable in acidic pH |  |  |  |  |  |  |  |  |  |  |  |  |
| Oc1ccccc1NCc1ccccn1 [ARN2966, 2-[(pyridine-2-ylmethyl)-amino]-phenol] |  |  |  |  |  | 1.96 | 61.4% | restored normal cell morphology | rescue M17 neuroblastoma cell death | rescue M17 neuroblastoma cell death | spent significantly more time exploring the novel object; also recorded: able to distinguish a novel object from the familiar object | made fewer errors than vehicle group | evident reduction of APP, C99, and C83 signal | 39% | 61.5% | significantly reduced incorporation of 35S-Methionine by APP | remained unaltered |
